pIC50: −log10 of the molar value.
Each compound was assayed on ACHN (assay: Cytotoxic activity against human ACHN bulk cells incubated for 72 hrs by Cell-titer-Glo luminescence assay). Settings: not given.
Assay type: functional, cell-based

SMILES	pIC50
CCN(CC)CCNC(=O)c1c(C)[nH]c(/C=C2\C(=O)Nc3cc(-c4oc(-c5ccccc5)nc4C)ccc32)c1C	5.53
Cc1cc(C)c(/C=C2\C(=O)Nc3cccc(-c4ccc5cc[nH]c5c4)c32)[nH]1	4.69
CCN(CC)CCNC(=O)c1c(C)[nH]c(/C=C2\C(=O)Nc3ccc(-c4cccnc4)cc32)c1C	5.88
Cc1[nH]c(/C=C2\C(=O)Nc3c2cccc3-c2csc(-c3ccccc3)n2)c(C)c1C(=O)N1CCN(C)CC1	4.82
CCN(CC)CCNC(=O)c1c(C)[nH]c(/C=C2\C(=O)Nc3c2cccc3-c2cncc(C)c2)c1C	5.77
Cc1[nH]c(/C=C2\C(=O)Nc3cccc(-c4ccc(-c5ccccc5)cc4)c32)c(C)c1C(=O)N1CCN(C)CC1	4.83
CCN(CC)CCNC(=O)c1c(C)[nH]c(/C=C2\C(=O)Nc3c2cccc3-c2cccnc2OC)c1C	5.44

These compounds were tested on FaDu (assay: Cytotoxic activity against human FADU cancer stem cells incubated for 72 hrs by Cell-titer-Glo luminescence assay). Settings: not given.
Assay type: functional, cell-based

SMILES	pIC50
CCN(CC)CCNC(=O)c1c(C)[nH]c(/C=C2\C(=O)Nc3cc(-c4oc(-c5ccccc5)nc4C)ccc32)c1C	5.09
CCN(CC)CCNC(=O)c1c(C)[nH]c(/C=C2\C(=O)Nc3ccc(-c4cccnc4)cc32)c1C	5.37
Cc1[nH]c(/C=C2\C(=O)Nc3c2cccc3-c2csc(-c3ccccc3)n2)c(C)c1C(=O)N1CCN(C)CC1	5.52
CCN(CC)CCNC(=O)c1c(C)[nH]c(/C=C2\C(=O)Nc3c2cccc3-c2cncc(C)c2)c1C	5.66
Cc1[nH]c(/C=C2\C(=O)Nc3cccc(-c4ccc(-c5ccccc5)cc4)c32)c(C)c1C(=O)N1CCN(C)CC1	5.92
CCN(CC)CCNC(=O)c1c(C)[nH]c(/C=C2\C(=O)Nc3c2cccc3-c2cccnc2OC)c1C	5.72

These compounds were tested against T1, Ribosomal protein S6 kinase (Homo sapiens) (UniProt P51812+Q9UBS0+O75676+Q15349+O75582+P23443+Q9UK32+Q15418) (assay: Inhibition of RPS6 kinase in human HeLa cells assessed as p-RPS6 Ser240/244 phosphorylation level at 5 uM incubated for 6 hrs by SDS-PAGE based chemiluminescence assay). Settings: not given.
Assay type: cell-based
Design: scale not given: the % may be the effect or the level left

Activity [%]	SMILES
43	CCN(CC)CCNC(=O)c1c(C)[nH]c(/C=C2\C(=O)Nc3cc(-c4oc(-c5ccccc5)nc4C)ccc32)c1C
35	Cc1cc(C)c(/C=C2\C(=O)Nc3cccc(-c4ccc5cc[nH]c5c4)c32)[nH]1
31	CCN(CC)CCNC(=O)c1c(C)[nH]c(/C=C2\C(=O)Nc3ccc(-c4cccnc4)cc32)c1C
32	Cc1[nH]c(/C=C2\C(=O)Nc3c2cccc3-c2csc(-c3ccccc3)n2)c(C)c1C(=O)N1CCN(C)CC1
59	CCN(CC)CCNC(=O)c1c(C)[nH]c(/C=C2\C(=O)Nc3c2cccc3-c2cncc(C)c2)c1C
36	Cc1[nH]c(/C=C2\C(=O)Nc3cccc(-c4ccc(-c5ccccc5)cc4)c32)c(C)c1C(=O)N1CCN(C)CC1
54	CCN(CC)CCNC(=O)c1c(C)[nH]c(/C=C2\C(=O)Nc3c2cccc3-c2cccnc2OC)c1C

The compounds below were run against AMP-activated protein kinase, AMPK (Homo sapiens) (UniProt P54646+O43741+P54619+Q9UGJ0+Q9Y478+Q13131+Q9UGI9) (assay: Inhibition of AMPK in human HeLa cells assessed as kinase phosphorylation level at 5 uM incubated for 6 hrs by SDS-PAGE based chemiluminescence assay). Settings: not given.
Assay type: cell-based
Design: scale not given: the % may be the effect or the level left

Activity [%]	SMILES
151	CCN(CC)CCNC(=O)c1c(C)[nH]c(/C=C2\C(=O)Nc3cc(-c4oc(-c5ccccc5)nc4C)ccc32)c1C
27	Cc1cc(C)c(/C=C2\C(=O)Nc3cccc(-c4ccc5cc[nH]c5c4)c32)[nH]1
8	CCN(CC)CCNC(=O)c1c(C)[nH]c(/C=C2\C(=O)Nc3ccc(-c4cccnc4)cc32)c1C
122	Cc1[nH]c(/C=C2\C(=O)Nc3c2cccc3-c2csc(-c3ccccc3)n2)c(C)c1C(=O)N1CCN(C)CC1
50	CCN(CC)CCNC(=O)c1c(C)[nH]c(/C=C2\C(=O)Nc3c2cccc3-c2cncc(C)c2)c1C
105	Cc1[nH]c(/C=C2\C(=O)Nc3cccc(-c4ccc(-c5ccccc5)cc4)c32)c(C)c1C(=O)N1CCN(C)CC1
31	CCN(CC)CCNC(=O)c1c(C)[nH]c(/C=C2\C(=O)Nc3c2cccc3-c2cccnc2OC)c1C

What follows are compounds tested on ACHN (assay: Cytotoxic activity against human ACHN cancer stem cells incubated for 72 hrs by Cell-titer-Glo luminescence assay). Settings: not given.
Assay type: functional, cell-based

SMILES	pIC50
CCN(CC)CCNC(=O)c1c(C)[nH]c(/C=C2\C(=O)Nc3cc(-c4oc(-c5ccccc5)nc4C)ccc32)c1C	5.78
Cc1cc(C)c(/C=C2\C(=O)Nc3cccc(-c4ccc5cc[nH]c5c4)c32)[nH]1	4.72
CCN(CC)CCNC(=O)c1c(C)[nH]c(/C=C2\C(=O)Nc3ccc(-c4cccnc4)cc32)c1C	5.97
Cc1[nH]c(/C=C2\C(=O)Nc3c2cccc3-c2csc(-c3ccccc3)n2)c(C)c1C(=O)N1CCN(C)CC1	6.30
CCN(CC)CCNC(=O)c1c(C)[nH]c(/C=C2\C(=O)Nc3c2cccc3-c2cncc(C)c2)c1C	5.71
CCN(CC)CCNC(=O)c1c(C)[nH]c(/C=C2\C(=O)Nc3c2cccc3-c2cccnc2OC)c1C	5.57

The compounds below were run on FaDu (assay: Cytotoxic activity against human FADU bulk cells incubated for 72 hrs by Cell-titer-Glo luminescence assay). Settings: not given.
Assay type: functional, cell-based

SMILES	pIC50
CCN(CC)CCNC(=O)c1c(C)[nH]c(/C=C2\C(=O)Nc3cc(-c4oc(-c5ccccc5)nc4C)ccc32)c1C	5.45
Cc1cc(C)c(/C=C2\C(=O)Nc3cccc(-c4ccc5cc[nH]c5c4)c32)[nH]1	4.79
CCN(CC)CCNC(=O)c1c(C)[nH]c(/C=C2\C(=O)Nc3ccc(-c4cccnc4)cc32)c1C	5.55
Cc1[nH]c(/C=C2\C(=O)Nc3c2cccc3-c2csc(-c3ccccc3)n2)c(C)c1C(=O)N1CCN(C)CC1	5.27
CCN(CC)CCNC(=O)c1c(C)[nH]c(/C=C2\C(=O)Nc3c2cccc3-c2cncc(C)c2)c1C	5.21
Cc1[nH]c(/C=C2\C(=O)Nc3cccc(-c4ccc(-c5ccccc5)cc4)c32)c(C)c1C(=O)N1CCN(C)CC1	5.12
CCN(CC)CCNC(=O)c1c(C)[nH]c(/C=C2\C(=O)Nc3c2cccc3-c2cccnc2OC)c1C	5.42

Each compound was assayed on A549 (assay: Cytotoxic activity against human A549 bulk cells incubated for 72 hrs by Cell-titer-Glo luminescence assay). Settings: A549, 72 h.
Assay type: functional, cell-based

SMILES	pIC50
CCN(CC)CCNC(=O)c1c(C)[nH]c(/C=C2\C(=O)Nc3cc(-c4oc(-c5ccccc5)nc4C)ccc32)c1C	5.13
Cc1cc(C)c(/C=C2\C(=O)Nc3cccc(-c4ccc5cc[nH]c5c4)c32)[nH]1	4.78
CCN(CC)CCNC(=O)c1c(C)[nH]c(/C=C2\C(=O)Nc3ccc(-c4cccnc4)cc32)c1C	6.08
Cc1[nH]c(/C=C2\C(=O)Nc3c2cccc3-c2csc(-c3ccccc3)n2)c(C)c1C(=O)N1CCN(C)CC1	5.27
CCN(CC)CCNC(=O)c1c(C)[nH]c(/C=C2\C(=O)Nc3c2cccc3-c2cncc(C)c2)c1C	5.47
Cc1[nH]c(/C=C2\C(=O)Nc3cccc(-c4ccc(-c5ccccc5)cc4)c32)c(C)c1C(=O)N1CCN(C)CC1	4.67
CCN(CC)CCNC(=O)c1c(C)[nH]c(/C=C2\C(=O)Nc3c2cccc3-c2cccnc2OC)c1C	5.27

What follows are compounds tested against T1, Ribosomal protein S6 kinase (Homo sapiens) (assay: Inhibition of RPS6 kinase in human HeLa cells assessed as p-RPS6 Ser235/236 phosphorylation level at 5 uM incubated for 6 hrs by SDS-PAGE based chemiluminescence assay). Settings: not given.
Assay type: cell-based
Design: scale not given: the % may be the effect or the level left

Activity [%]	SMILES
4	CCN(CC)CCNC(=O)c1c(C)[nH]c(/C=C2\C(=O)Nc3cc(-c4oc(-c5ccccc5)nc4C)ccc32)c1C
36	Cc1cc(C)c(/C=C2\C(=O)Nc3cccc(-c4ccc5cc[nH]c5c4)c32)[nH]1
1	CCN(CC)CCNC(=O)c1c(C)[nH]c(/C=C2\C(=O)Nc3ccc(-c4cccnc4)cc32)c1C
2	Cc1[nH]c(/C=C2\C(=O)Nc3c2cccc3-c2csc(-c3ccccc3)n2)c(C)c1C(=O)N1CCN(C)CC1
47	CCN(CC)CCNC(=O)c1c(C)[nH]c(/C=C2\C(=O)Nc3c2cccc3-c2cncc(C)c2)c1C
2	Cc1[nH]c(/C=C2\C(=O)Nc3cccc(-c4ccc(-c5ccccc5)cc4)c32)c(C)c1C(=O)N1CCN(C)CC1
48	CCN(CC)CCNC(=O)c1c(C)[nH]c(/C=C2\C(=O)Nc3c2cccc3-c2cccnc2OC)c1C

These compounds were tested on A549 (assay: Cytotoxic activity against human A549 cancer stem cells incubated for 72 hrs by Cell-titer-Glo luminescence assay). Settings: A549, 72 h.
Assay type: functional, cell-based

SMILES	pIC50
Cc1cc(C)c(/C=C2\C(=O)Nc3cccc(-c4ccc5cc[nH]c5c4)c32)[nH]1	4.69
CCN(CC)CCNC(=O)c1c(C)[nH]c(/C=C2\C(=O)Nc3ccc(-c4cccnc4)cc32)c1C	5.41
Cc1[nH]c(/C=C2\C(=O)Nc3c2cccc3-c2csc(-c3ccccc3)n2)c(C)c1C(=O)N1CCN(C)CC1	5.38
CCN(CC)CCNC(=O)c1c(C)[nH]c(/C=C2\C(=O)Nc3c2cccc3-c2cncc(C)c2)c1C	5.65
Cc1[nH]c(/C=C2\C(=O)Nc3cccc(-c4ccc(-c5ccccc5)cc4)c32)c(C)c1C(=O)N1CCN(C)CC1	5.24
CCN(CC)CCNC(=O)c1c(C)[nH]c(/C=C2\C(=O)Nc3c2cccc3-c2cccnc2OC)c1C	5.16

— ChEMBL document CHEMBL3727348, “3-(aryl or heteroaryl) methyleneindolin-2-one derivatives as inhibitors of cancer stem cell pathway kinases for the treatment of cancer” (2014)
